Tests used:
MOLT-4 = test: panel of 60 human tumor cell lines, growth inhibition (Leukemia); conditions: Homo sapiens; for GI50: MOLT-4; for CC50: MOLT-4, read-out: LC50; for IC (TGI): MOLT-4, read-out: TGI
SR = test: as above; conditions: Homo sapiens; for CC50: read-out: LC50; for IC (TGI): read-out: TGI
SF-268 = test: panel of 60 human tumor cell lines, growth inhibition (CNS Cancer); conditions: Homo sapiens; for GI50: SF-268; for CC50: SF-268, read-out: LC50; for IC (TGI): SF-268, read-out: TGI
SNB-19 = test: as above; conditions: Homo sapiens; for GI50: SNB-19; for CC50: SNB-19, read-out: LC50; for IC (TGI): SNB-19, read-out: TGI
SNB-75 = test: as above; conditions: Homo sapiens; for GI50: SNB-75; for CC50: SNB-75, read-out: LC50; for IC (TGI): SNB-75, read-out: TGI
HCC-2998 = test: panel of 60 human tumor cell lines, growth inhibition (Colon Cancer); conditions: Homo sapiens; for GI50: HCC 2998; for CC50: HCC 2998, read-out: LC50; for IC (TGI): HCC 2998, read-out: TGI
HCT-116 = test: as above; conditions: Homo sapiens; for GI50: HCT-116, HCT-116, NCI five dose; for CC50: HCT-116, read-out: LC50; for IC (TGI): HCT-116, read-out: TGI
SW-620 = test: as above; conditions: Homo sapiens; for GI50: SW-620, SW-620, NCI five dose; for CC50: SW-620, read-out: LC50; for IC (TGI): SW-620, read-out: TGI
786-0 = test: panel of 60 human tumor cell lines, growth inhibition (Renal Cancer); conditions: Homo sapiens; for GI50: 786-0; for CC50: 786-0, read-out: LC50; for IC (TGI): 786-0, read-out: TGI
A498 = test: as above; conditions: Homo sapiens; for GI50: A498; for CC50: A498, read-out: LC50; for IC (TGI): A498, read-out: TGI
CAKI-1 = test: as above; conditions: Homo sapiens; for GI50: CAKI-1; for CC50: CAKI-1, read-out: LC50; for IC (TGI): CAKI-1, read-out: TGI
TK-10 = test: as above; conditions: Homo sapiens; for GI50: TK-10, TK-10, NCI five dose; for CC50: TK-10, read-out: LC50; for IC (TGI): TK-10, read-out: TGI
UO-31 = test: as above; conditions: Homo sapiens; for GI50: UO-31; for CC50: UO-31, read-out: LC50; for IC (TGI): UO-31, read-out: TGI
MCF7 = test: panel of 60 human tumor cell lines, growth inhibition (Breast Cancer); conditions: Homo sapiens; for GI50: MCF7, MCF7, NCI five dose; for CC50: MCF7, read-out: LC50; for IC (TGI): MCF7, read-out: TGI
HS 578T = test: as above; conditions: Homo sapiens, Hs-578T; for CC50: read-out: LC50; for IC (TGI): read-out: TGI
T-47D = test: as above; conditions: Homo sapiens, T47D; for CC50: read-out: LC50; for IC (TGI): read-out: TGI
MDA-MB-468 = test: as above; conditions: Homo sapiens; for GI50: MDA-MB-468; for CC50: MDA-MB-468, read-out: LC50; for IC (TGI): MDA-MB-468, read-out: TGI
IGROV1 = test: panel of 60 human tumor cell lines, growth inhibition (Ovarian Cancer); conditions: Homo sapiens; for GI50: IGROV-1; for CC50: IGROV-1, read-out: LC50; for IC (TGI): IGROV-1, read-out: TGI
NCI/ADR-RES = test: as above; conditions: Homo sapiens; for CC50: read-out: LC50; for IC (TGI): read-out: TGI

In the case of C=C1C(=O)O[C@H]2[C@H]1CC/C(COC(=O)NCCCCCCO)=C\CC[C@@]1(C)O[C@@H]21 [JVM 2-31], the GI50 (MOLT-4) is reported as 5.33 µM, the CC50 (MOLT-4) is reported as greater than 100 µM and the IC (TGI) (MOLT-4) is reported as 26.6 µM. The GI50 (SR) was 2350 nM, the CC50 (SR) was greater than 100 µM and the IC (TGI) (SR) was 13.3 µM. It also gave a GI50 (SF-268) of 8.59 µM, a CC50 (SF-268) of 73 µM and an IC (TGI) (SF-268) of 26 µM. For the same compound, the GI50 (SNB-19) was 16.7 µM, the CC50 (SNB-19) was greater than 100 µM and the IC (TGI) (SNB-19) was 51.3 µM. It also gave a GI50 (SNB-75) of 5.84 µM, a CC50 (SNB-75) of 45.6 µM and an IC (TGI) (SNB-75) of 20.1 µM. The GI50 (HCC-2998) was 15.6 µM, the CC50 (HCC-2998) was 61.9 µM and the IC (TGI) (HCC-2998) was 31.1 µM. For the same compound, the GI50 (HCT-116) was 2780 nM, the CC50 (HCT-116) was 34 µM and the IC (TGI) (HCT-116) was 11 µM. For the same compound, the GI50 (SW-620) was 2930 nM, the CC50 (SW-620) was 74 µM and the IC (TGI) (SW-620) was 13.3 µM. It also gave a GI50 (786-0) of 2.99 µM, a CC50 (786-0) of 43.7 µM and an IC (TGI) (786-0) of 13.1 µM. The GI50 (A498) was 12.5 µM, the CC50 (A498) was 53.4 µM and the IC (TGI) (A498) was 25.9 µM. For the same compound, the GI50 (CAKI-1) was 3.44 µM, the CC50 (CAKI-1) was 40.2 µM and the IC (TGI) (CAKI-1) was 15.5 µM. The GI50 (TK-10) was 2640 nM, the CC50 (TK-10) was 33.3 µM and the IC (TGI) (TK-10) was 9.68 µM. It also gave a GI50 (UO-31) of 5.91 µM, a CC50 (UO-31) of 62.6 µM and an IC (TGI) (UO-31) of 21.2 µM. It also gave a GI50 (MCF7) of 4.92 µM, a CC50 (MCF7) of 76.3 µM and an IC (TGI) (MCF7) of 12 µM. For the same compound, the GI50 (HS 578T) was 3.92 µM, the CC50 (HS 578T) was greater than 100 µM and the IC (TGI) (HS 578T) was 85.7 µM. It also gave a GI50 (T-47D) of 2780 nM, a CC50 (T-47D) of 87.9 µM and an IC (TGI) (T-47D) of 10 µM. The GI50 (MDA-MB-468) was 1010 nM, the CC50 (MDA-MB-468) was 35.7 µM and the IC (TGI) (MDA-MB-468) was 5.23 µM. The GI50 (IGROV1) was 17.4 µM, the CC50 (IGROV1) was 80.7 µM and the IC (TGI) (IGROV1) was 37.5 µM. It also gave a GI50 (NCI/ADR-RES) of 28.1 µM, a CC50 (NCI/ADR-RES) greater than 100 µM and an IC (TGI) (NCI/ADR-RES) greater than 100 µM.

Compound C=C1C(=O)O[C@H]2[C@H]1CC/C(COC(=O)OC)=C\CC[C@@]1(C)O[C@@H]21 [JVM 2-40] has a GI50 (MOLT-4) of 4.05 µM, a CC50 (MOLT-4) greater than 100 µM and an IC (TGI) (MOLT-4) of 21.7 µM. For the same compound, the GI50 (SR) was 2240 nM, the CC50 (SR) was greater than 100 µM and the IC (TGI) (SR) was 12.5 µM. The GI50 (SF-268) was 7.36 µM, the CC50 (SF-268) was 62.8 µM and the IC (TGI) (SF-268) was 23.6 µM. The GI50 (SNB-19) was 13.5 µM, the CC50 (SNB-19) was 59.1 µM and the IC (TGI) (SNB-19) was 28.2 µM. For the same compound, the GI50 (SNB-75) was 2.69 µM, the CC50 (SNB-75) was 42.5 µM and the IC (TGI) (SNB-75) was 17.9 µM. The GI50 (HCC-2998) was 13.8 µM, the CC50 (HCC-2998) was 56.8 µM and the IC (TGI) (HCC-2998) was 28 µM. The GI50 (HCT-116) was 2240 nM, the CC50 (HCT-116) was 33.2 µM and the IC (TGI) (HCT-116) was 11 µM. The GI50 (SW-620) was 2390 nM, the CC50 (SW-620) was 47.4 µM and the IC (TGI) (SW-620) was 11.9 µM. For the same compound, the GI50 (786-0) was 3.29 µM, the CC50 (786-0) was 48.5 µM and the IC (TGI) (786-0) was 14.4 µM. It also gave a GI50 (A498) of 10.9 µM, a CC50 (A498) of 49 µM and an IC (TGI) (A498) of 23.1 µM. For the same compound, the GI50 (CAKI-1) was 2.79 µM, the CC50 (CAKI-1) was 38.8 µM and the IC (TGI) (CAKI-1) was 15 µM. It also gave a GI50 (TK-10) of 2650 nM, a CC50 (TK-10) of 32.9 µM and an IC (TGI) (TK-10) of 10.8 µM. For the same compound, the GI50 (UO-31) was 3.21 µM, the CC50 (UO-31) was 42.1 µM and the IC (TGI) (UO-31) was 14.2 µM. For the same compound, the GI50 (MCF7) was 2.28 µM, the CC50 (MCF7) was 49.8 µM and the IC (TGI) (MCF7) was 12.2 µM. For the same compound, the GI50 (HS 578T) was 4.72 µM, the CC50 (HS 578T) was greater than 100 µM and the IC (TGI) (HS 578T) was 38.9 µM. The GI50 (T-47D) was 2700 nM, the CC50 (T-47D) was 61.3 µM and the IC (TGI) (T-47D) was 12.5 µM. It also gave a GI50 (MDA-MB-468) of 574 nM, a CC50 (MDA-MB-468) of 19.2 µM and an IC (TGI) (MDA-MB-468) of 3.09 µM. For the same compound, the GI50 (IGROV1) was 16.6 µM, the CC50 (IGROV1) was 85.8 µM and the IC (TGI) (IGROV1) was 37.7 µM. For the same compound, the GI50 (NCI/ADR-RES) was 17.2 µM, the CC50 (NCI/ADR-RES) was greater than 100 µM and the IC (TGI) (NCI/ADR-RES) was 49.2 µM.
